Read-outs that look alike come from different tables or passages of the source.
Legend:
[1] = biological target: T1, IL-4 (Homo sapiens, UniProt P05112); assay: HEK-Blue IL-4/IL-13 cell-based reporter (SEAP) IL-4 inhibition assay; conditions: for Activity at 1 uM / Activity at 10 uM: percent activity in HEK-Blue IL-4/IL-13, in %; for reduction of IL-4 activity: at 50 μM, normalized to IL-4 with vehicle
T1 construct: purchased Acros Biosystems IL4-H4218; host or cells: HEK-293
T1 sequence (P05112 25-153): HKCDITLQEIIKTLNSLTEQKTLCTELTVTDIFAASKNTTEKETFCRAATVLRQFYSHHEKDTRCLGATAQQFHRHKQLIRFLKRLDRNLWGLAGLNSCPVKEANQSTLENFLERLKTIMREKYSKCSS
Description: HEK-Blue IL-4/IL-13 cells were purchased from Invivogen and maintained in DMEM complete with 10% fetal bovine serum, 10 μg/ml of blasticidin and 100 μg/ml of Zeocin, 100 μg/mL Normocin, and 100 U/mL-100 μg/mL Pen-Strep. Cells used for assays were between passages 12 and 18. […] HEK-Blue IL-4/IL-13 cells were trypsinized, spun down, and resuspended in DMEM with 10% heat-inactivated FBS, and 100 U/mL-100 μg/mL Pen-Strep at a concentration of 3.125E5/mL. 160 μL of the cell suspension was added to each well of a 96 well plate, avoiding the edges of the plate and equilibrated in an incubator for 1 hour. After 2 hours, 40 μL of the small molecule/IL-4 solution was added to each well. Each measurement performed in quadruplicate. Cells were incubated for 20 hours at 37° C./5% CO2. Quanti-Blue was prepared according to manufacture and 160 μL added to each well of a 96 well plate, avoiding edges. 40 μL of cell supernatant was added to each well and then incubated for 3 hours at 37° C. The optical density was then read at 650 nm with a Molecular Devices SpectraMax M5 Microplate Reader. Data was plotted and analyzed in GraphPad Prism 8.
HEK-Blue IL-4/IL-13 cells were purchased from Invivogen and maintained in DMEM complete with 10% fetal bovine serum, 10 μg/ml of blasticidin and 100 μg/ml of Zeocin, 100 μg/mL Normocin, and 100 U/mL-100 μg/mL Pen-Strep. Cells used for assays were between passages 12 and 18. Prior to screening small molecules, the SEAP production induced by IL-4 alone was tested in the cells (FIG. 13) and determined to be 0.3 ng/mL. The EC25 for the IL-4 induced SEAP production (0.1 ng/mL final well concentration) was chosen for running small molecule inhibition assays.
(§1) For screening small molecules, 25 µL of each molecule (FIG. 9) in DMEM with 4% DMSO was added to 25 μL of 1 ng/ml IL-4 in DMEM and incubated for 2 hours at 37° C. HEK-Blue IL-4/IL-13 cells were trypsinized, spun down, and resuspended in DMEM with 10% heat-inactivated FBS, and 100 U/mL-100 μg/mL Pen-Strep at a concentration of 3.125E5/mL. 160 μL of the cell suspension was added to each well of a 96 well plate, avoiding the edges of the plate and equilibrated in an incubator for 1 hour. After 2 hours, 40 μL of the small molecule/IL-4 solution was added to each well. Each measurement was performed in […]. Cells were incubated for 20 hours at 37° C./5% CO2. Quanti-Blue was prepared according to manufacture and 160 μL added to each well of a 96 well plate, avoiding edges. 40 μL of cell supernatant was added to each well and then incubated for 3 hours at 37° C. The optical density was then read at 650 nm with a Molecular Devices SpectraMax M5 Microplate Reader. Data was plotted and analyzed in GraphPad Prism 8.
HEK-Blue IL-4/IL-13 cells used to screen analogs of compound 52 from ACS Chemical Biology paper (also referred to herein as D9). Assay was run as described in Examples 2 and 3. All compounds were screened at 10 μM, 1 μM, and 250 nM in quadruplicate. The results are depicted in FIGS. 17-21.

[2] = test system: HEK-Blue IL-4/IL-13 cells; assay: HEK-Blue IL-4/IL-13 control: compounds alone without IL-4 (SEAP); format: cell-based; conditions: cells with 100 μM compound, no IL-4
Description: as §1, with “For screening small molecules, 25 µL of each molecule (FIG. 9) in DMEM with 4% DMSO was added to 25 μL of 1 ng/ml IL-4 in DMEM and incubated for 2 hours at 37° C.” left out

[3] = test system: >25 other proteins; assay: SMM binding signatures versus >25 unrelated proteins; conditions: compared to SMM binding signatures for >25 other proteins
Excerpt: [formula] Where SNRi is the SNR value for a given feature, Mdn(SNR) is the median of the SNR values for all features in the subarray, and the MAD(SNR) is the […] absolute deviation of the SNR values for all features in the subarray. Assay positives with an average robust Z score greater than 1.645 (alpha=0.05) on duplicate slides were compared to both a counter screen for the detection antibody and a database representing >25 unique targets screened by SMM against the same chemical library to filter nonspecific binders. DSF

[4] = Example 2, quadruplicate, read-out: EC50 of IL-4 inhibition in HEK-Blue IL-4/IL-13 cells
[5] = Example 3, triplicate, read-out: EC50 of IL-4 inhibition in HEK-Blue IL-4/IL-13 cells

Compound	Activity at 1 uM [1]	Activity at 10 uM [1]	also measured
N#Cc1c(-c2ccc(O)c(O)c2)cc(-c2ccc(F)cc2)nc1N [Compound 2]	64.46	4.2	
Cc1ccc(-c2cc(-c3ccc(F)cc3)nc(N)c2C#N)s1 [Compound 11]	69.98	62.48	
COc1ccc(-c2cc(C3CCCOC3)c(C#N)c(=O)[nH]2)cc1 (stereo not shown) [Compound 36]	71.59	68.36	
COc1ccc(-c2cc(-c3ccc(O)c(OC)c3)c(C#N)c(=O)[nH]2)cc1 [Compound 45]	80.34	−2.843	
COc1ccc(-c2cc(-c3ccccc3)c(C#N)c(=O)[nH]2)cc1 [Compound 34]	73.09	72.43	
COc1ccc(-c2cc(-c3cccc(O)c3)c(C#N)c(=O)[nH]2)cc1 [Compound 43]	112.2	35.73	
COc1ccc(-c2cc(-c3ccccc3O)c(C#N)c(=O)[nH]2)cc1 [Compound 42]	33.675	−0.3167	
COc1ccc(-c2cc(-c3ccc(OC)c(O)c3)c(C#N)c(=O)[nH]2)cc1 [Compound 46]	17.94	13.16	
COc1ccc(-c2cc(-c3ccc(-c4ccccc4)cc3)[nH]c(=O)c2C#N)cc1O [Compound 53]	17.656	30.26	
N#Cc1c(-c2ccc(O)c(O)c2)cc(-c2ccc(F)cc2)nc1N [Compound 1, 2-amino-4-(3,4-dihydroxyphenyl)-6-(4-fluorophenyl)-nicotinonitrile]	71.73	2.405	Abs650 [2]: 0.0955 ± 0.0072; SMM binding selectivity [3]: only bound to IL-4; EC50 [1, 4]: 45.6 µM; EC50 [1, 5]: 40 µM; EC50 ([1]; Table 3, read-out: EC50): 1.56 µM; reduction of IL-4 activity [1]: 88.6%
COc1ccc(-c2cc(-c3cccnc3)nc(N)c2C#N)cc1O [Compound 25]			Abs650 [2]: 0.0648 ± 0.0012; SMM binding selectivity [3]: only bound to IL-4; EC50 [1, 4]: 21.7 µM; EC50 [1, 5]: 7.6 µM; reduction of IL-4 activity [1]: 84.3%
Cn1ccc(-c2cc(-c3cccc(O)c3)c(C#N)c(=O)[nH]2)c1 [Compound 57]	94.4121	75.91	
N#Cc1c(-c2ccccc2O)cc(-c2ccc(F)cc2)nc1N [Compound 15]	51.3773	1.218	
Cc1ccc(-c2cc(-c3ccc(F)cc3)nc(N)c2C#N)o1 [Compound 9]	77.98	66.06	
Cc1cc(-c2cc(-c3cccc(O)c3)c(C#N)c(=O)[nH]2)c(C)s1 [Compound 58]	85.76	39.79	
COc1nc(-c2ccccc2)cc(-c2ccccc2)c1C#N [Compound 61]	96.92	39.64	
N#Cc1c(-c2cc(O)c(O)c(O)c2)cc(-c2ccc(F)cc2)nc1N [Compound 5]	84.76	93.86	
COc1ccc(-c2cc(-c3ccc(O)cc3)c(C#N)c(=O)[nH]2)cc1 [Compound 44]	33.62	39.28	
N#Cc1c(-c2ccc(O)cc2)cc(-c2ccc(F)cc2)nc1N [Compound 17]	99.0184	52.77	
N#Cc1c(-c2ccccc2)cc(-c2ccccc2)nc1N1CCCCC1 [Compound 63]	95.46	40.44	
COc1ccc(-c2cc(-c3ccccc3)c(C#N)c(S)n2)cc1 [Compound 64]	17.08	16.53	
COc1ccc(-c2cc(-c3ccc(Cl)c(Cl)c3)c(C#N)c(=O)[nH]2)cc1 [Compound 32]	51.3	55.85	
N#Cc1c(-c2ccc(O)c(O)c2)cc(-c2ccc(N3CCCCC3)cc2)[nH]c1=O [Compound 56]	81.52	11.84	
COc1ccc(-c2cc(-c3ccc(O)cc3)c(C#N)c(SC)n2)c(OC)c1 [Compound 66]	87.86	21.21	
COc1ccc(-c2cc(-c3ccc(OC)c(O)c3)c(C#N)c(N)n2)cc1 [Compound 30]	64.45	28.76	EC50 ([1]; Table 3, read-out: EC50): 3.88 µM
N#Cc1c(-c2cccc(O)c2)cc(-c2cc(F)c(F)c(F)c2)[nH]c1=O [Compound 59]	88.75	32.37	
COc1ccc(-c2cc(-c3ccccc3)c(C#N)c(SC)n2)cc1 [Compound 65]	95.33	20.54	
COc1ccc(-c2cc(-c3ccc4ccccc4c3)c(C#N)c(=O)[nH]2)cc1 [Compound 41]	62.288	48.23	
COc1ccc(-c2cc(-c3ccccc3)nc(Br)c2C#N)cc1 [Compound 62]	96.31	38.63	
COc1ccc(-c2cc(-c3ccc(C)o3)c(C#N)c(=O)[nH]2)cc1 [Compound 37]	89.04	99.52	
